Reference: ChEMBL document CHEMBL3046782, “Fungicidial Activity of Benthiavalicarb-isopropyl against Phytophthora infestans and Its Controlling Activity against Late Blight Diseases” (J Pestic Sci, 2005)
Values after ≈ are worked out from the molar mass of the structure shown.

System: Phytophthora infestans
Test: Antifungal activity against phenylamide-resistant Phytophthora infestans 7-1 assessed as inhibition of mycelial growth after 5 to 7 days
Type: functional, organism-based, 07-Jan
Conditions: for IC50: Phytophthora infestans, 07-Jan, read-out: I50

Compound	MIC [µg/mL]	IC50 [µg/mL]
CC(C)OC(=O)N[C@H](C(=O)N[C@H](C)c1nc2ccc(F)cc2s1)C(C)C [BENTHIAVALICARB-ISOPROPYL]	0.1 (≈ 0.262 µM)	0.04 (≈ 0.105 µM)
COCC(=O)N(c1c(C)cccc1C)C(C)C(=O)OC (centres undefined) [METALAXYL]	>10	> 10
